The test system of test [1] is P-P70S6K (T389). The experiment in a line: Cell based AlphaLISA assay, inhibition of P-P70S6K (T389) in MDA-MB-468 cells. The following applies: Homo sapiens, 4 h, 0.017-1,000 nM, two to four hours at 37° C., AlphaLisa SureFire Ultra, read-out: pIC50 for Inhibition of mTORC1 and mTORC2 Substrate Phosphorylation, p-P70S6K-(T389) (converted). As to the method:
(§1) Cell Based AlphaLISA Assays For Determining IC50 For Inhibition of P-Akt (S473), P-4E-BP1 (T37/46), and P-P70S6K (T389) in MDA-MB-468 Cells
(§2) mTOR Kinase Cellular Assay
(§3) To measure functional activity of mTORC1 and mTORC2 in cells the phosphorylation of 4EBP1 (Thr37/46) and P70S6K (Thr389), and AKT1/2/3 (Ser473) was monitored using AlphaLisa SureFire Ultra Kits (Perkin Elmer). […] Incubations are terminated by removal of the assay buffer and addition of lysis buffer provided with the assay kit. Samples are processed according to the manufacturer's instructions. The Alpha signal from the respective phosphoproteins is measured in duplicate using a microplate reader (Envision, Perkin-Elmer or Spectramax M5, Molecular Devices). Inhibitor concentration response curves are analyzed using normalized IC50 regression curve fitting with control based normalization.
(In general: Bead proximity is the source of the signal in Alpha formats.)

In test [2] the test system is P-4E-BP1 (T37/46). The experiment in a line: Cell based AlphaLISA assay, inhibition of P-4E-BP1 (T37/46) in MDA-MB-468 cells. The following applies: Homo sapiens, 4 h, 0.017-1,000 nM, two to four hours at 37° C., AlphaLisa SureFire Ultra, read-out: pIC50 for Inhibition of mTORC1 and mTORC2 Substrate Phosphorylation, p-4E-BP1-(T37/46) (converted). The protocol: as §1, §2, §3

Test [3] relates to P-Akt (S473). The test is described as follows: Cell based AlphaLISA assay, inhibition of P-Akt (S473) in MDA-MB-468 cells. The following applies: Homo sapiens, 4 h, 0.017-1,000 nM, two to four hours at 37° C., AlphaLisa SureFire Ultra, read-out: pIC50 for Inhibition of mTORC1 and mTORC2 Substrate Phosphorylation, p-AKT1/2/3-(S473) (converted). As to the method:
as §1, §2, §3

This is an account of results in patent US12187746B2, “C26-linked rapamycin analogs as mTOR inhibitors” (Revolution Medicines, Inc., priority 2018, dated 2025).

As to `CO[C@H]1C[C@@H]2CC[C@@H](C)[C@@](O)(O2)C(=O)C(=O)N2CCCC[C@H]2C(=O)O[C@H]([C@H](C)C[C@@H]2CC[C@@H](O)[C@H](OC)C2)C[C@@H](O)[C@H](C)/C=C(\C)[C@@H](O)[C@@H](OC)C(=NOCC(=O)NCCOCCOCCOCCOCCOCCOCCOCCOCCC(=O)NCCCCn2nc(-c3ccc4oc(N)nc4c3)c3c(N)ncnc32)[C@H](C)C[C@H](C)/C=C/C=C/C=C/1C` [Example 1], the IC50 is 1 to 10 nM in test [1], 3.16 to 31.6 nM in test [2] and 31.6 to 1000 nM in test [3].

Consider `CO[C@H]1C[C@@H]2CC[C@@H](C)[C@@](O)(O2)C(=O)C(=O)N2CCCC[C@H]2C(=O)O[C@H]([C@H](C)C[C@@H]2CC[C@@H](O)[C@H](OC)C2)C[C@@H](O)[C@H](C)/C=C(\C)[C@@H](O)[C@@H](OC)C(=NOCC(=O)NCCOCCOCCOCCOCCOCCOCCC(=O)NCCCCn2nc(-c3ccc4oc(N)nc4c3)c3c(N)ncnc32)[C@H](C)C[C@H](C)/C=C/C=C/C=C/1C` [Example 2], for which the IC50 in test [1] was under 1 nM; in test [2] it was 3.16 to 31.6 nM; in test [3], 31.6 to 1000 nM.

`CO[C@H]1C[C@@H]2CC[C@@H](C)[C@@](O)(O2)C(=O)C(=O)N2CCCC[C@H]2C(=O)O[C@H]([C@H](C)C[C@@H]2CC[C@@H](O)[C@H](OC)C2)C[C@@H](O)[C@H](C)/C=C(\C)[C@@H](O)[C@@H](OC)/C(=N/OCC(=O)NCCOCCOCCOCCOCCOCCOCCC(=O)NCCCCn2nc(-c3ccc4oc(N)nc4c3)c3c(N)ncnc32)[C@H](C)C[C@H](C)/C=C/C=C/C=C/1C` [Example 3]: the IC50 in test [1] was under 1 nM; in test [2] it was 3.16 to 31.6 nM; in test [3], 31.6 to 1000 nM.

Take `CO[C@H]1C[C@@H]2CC[C@@H](C)[C@@](O)(O2)C(=O)C(=O)N2CCCC[C@H]2C(=O)O[C@H]([C@H](C)C[C@@H]2CC[C@@H](O)[C@H](OC)C2)C[C@@H](O)[C@H](C)/C=C(\C)[C@@H](O)[C@@H](OC)C(=NOCC(=O)NCCOCCOCCOCCOCCOCCOCCOCCOCCC(=O)N2CCc3cc(Cn4nc(-c5ccc6oc(N)nc6c5)c5c(N)ncnc54)ccc3C2)[C@H](C)C[C@H](C)/C=C/C=C/C=C/1C` [Example 4]: the figures for the IC50 in test [1], in test [2] and in test [3] were under 1 nM, 3.16 to 31.6 nM and 31.6 to 1000 nM, respectively.

Turning to `CO[C@H]1C[C@@H]2CC[C@@H](C)[C@@](O)(O2)C(=O)C(=O)N2CCCC[C@H]2C(=O)O[C@H]([C@H](C)C[C@@H]2CC[C@@H](O)[C@H](OC)C2)C[C@@H](O)[C@H](C)/C=C(\C)[C@@H](O)[C@@H](OC)C(=NOCC(=O)NCCOCCOCCOCCOCCOCCOCCC(=O)N2CCc3cc(Cn4nc(-c5ccc6oc(N)nc6c5)c5c(N)ncnc54)ccc3C2)[C@H](C)C[C@H](C)/C=C/C=C/C=C/1C` [Example 5], the IC50 in test [1] was under 1 nM; in test [2] it was under 3.16 nM; in test [3] it was 31.6 to 1000 nM.

`CO[C@H]1C[C@@H]2CC[C@@H](C)[C@@](O)(O2)C(=O)C(=O)N2CCCC[C@H]2C(=O)O[C@H]([C@H](C)C[C@@H]2CC[C@@H](O)[C@H](OC)C2)C[C@@H](O)[C@H](C)/C=C(\C)[C@@H](O)[C@@H](OC)C(=NOCC(=O)NCCOCCOCCOCCOCCOCCOCCOCCOCCC(=O)NCCCCn2nc(-c3cnc4[nH]ccc4c3)c3c(N)ncnc32)[C@H](C)C[C@H](C)/C=C/C=C/C=C/1C` [Example 6]: the IC50 in test [1] was 1 to 10 nM; in test [2], 3.16 to 31.6 nM; in test [3], over 1000 nM.

For the compound `CO[C@H]1C[C@@H]2CC[C@@H](C)[C@@](O)(O2)C(=O)C(=O)N2CCCC[C@H]2C(=O)O[C@H]([C@H](C)C[C@@H]2CC[C@@H](O)[C@H](OC)C2)C[C@@H](O)[C@H](C)/C=C(\C)[C@@H](O)[C@@H](OC)C(=NOCC(=O)NCCOCCOCCOCCOCCOCCOCCC(=O)NCCCCn2nc(-c3cnc4[nH]ccc4c3)c3c(N)ncnc32)[C@H](C)C[C@H](C)/C=C/C=C/C=C/1C` [Example 7], the IC50 in test [1] is under 1 nM; in test [2], 3.16 to 31.6 nM; in test [3], over 1000 nM.

With `CO[C@H]1C[C@@H]2CC[C@@H](C)[C@@](O)(O2)C(=O)C(=O)N2CCCC[C@H]2C(=O)O[C@H]([C@H](C)C[C@@H]2CC[C@@H](O)[C@H](OC)C2)C[C@@H](OC)[C@H](C)/C=C(\C)[C@@H](O)[C@@H](OC)C(=NOCC(=O)NCCOCCOCCOCCOCCOCCOCCOCCOCCC(=O)NCCCCn2nc(-c3cnc4[nH]ccc4c3)c3c(N)ncnc32)[C@H](C)C[C@H](C)/C=C/C=C/C=C/1C` [Example 8], the IC50 in test [1] was under 1 nM; in test [2] it was 3.16 to 31.6 nM; in test [3], over 1000 nM.

Consider `CO[C@H]1C[C@@H]2CC[C@@H](C)[C@@](O)(O2)C(=O)C(=O)N2CCCC[C@H]2C(=O)O[C@H]([C@H](C)C[C@@H]2CC[C@@H](O)[C@H](OC)C2)C[C@@H](O)[C@H](C)/C=C(\C)[C@@H](O)[C@@H](OC)C(=NOCC(=O)NCCOCCOCCOCCOCCOCCOCCOCCOCCC(=O)N2CCc3cc(Cn4nc(-c5cnc6[nH]ccc6c5)c5c(N)ncnc54)ccc3C2)[C@H](C)C[C@H](C)/C=C/C=C/C=C/1C` [Example 9], for which the IC50 in test [1] is 1 to 10 nM; in test [2], 3.16 to 31.6 nM; in test [3] it was over 1000 nM.

Consider `CO[C@H]1C[C@@H]2CC[C@@H](C)[C@@](O)(O2)C(=O)C(=O)N2CCCC[C@H]2C(=O)O[C@H]([C@H](C)C[C@@H]2CC[C@@H](O)[C@H](OC)C2)C[C@@H](OC)[C@H](C)/C=C(\C)[C@@H](O)[C@@H](OC)C(=NOCC(=O)NCCOCCOCCOCCOCCOCCOCCOCCOCCC(=O)N2CCc3cc(Cn4nc(-c5cnc6[nH]ccc6c5)c5c(N)ncnc54)ccc3C2)[C@H](C)C[C@H](C)/C=C/C=C/C=C/1C` [Example 11], for which the IC50 was 1 to 10 nM in test [1], 3.16 to 31.6 nM in test [2] and over 1000 nM in test [3].

Consider `COc1ccc(-c2ccc3ncc4c(c3c2)n(-c2ccc(N3CCN(C(=O)CCOCCOCCOCCOCCOCCOCCNC(=O)CON=C5[C@H](C)C[C@H](C)/C=C/C=C/C=C(\C)[C@@H](OC)C[C@@H]6CC[C@@H](C)[C@@](O)(O6)C(=O)C(=O)N6CCCC[C@H]6C(=O)O[C@H]([C@H](C)C[C@@H]6CC[C@@H](O)[C@H](OC)C6)C[C@@H](O)[C@H](C)/C=C(\C)[C@@H](O)[C@H]5OC)CC3)c(C(F)(F)F)c2)c(=O)n4C)cn1` [Example 13], for which the IC50 in test [1] is under 1 nM; in test [2] it was under 3.16 nM; in test [3], 3.16 to 31.6 nM.

`COc1ccc(-c2ccc3ncc4c(c3c2)n(-c2ccc(N3CCN(c5ncc(CNC(=O)CCOCCOCCOCCOCCOCCOCCNC(=O)CON=C6[C@H](C)C[C@H](C)/C=C/C=C/C=C(\C)[C@@H](OC)C[C@@H]7CC[C@@H](C)[C@@](O)(O7)C(=O)C(=O)N7CCCC[C@H]7C(=O)O[C@H]([C@H](C)C[C@@H]7CC[C@@H](O)[C@H](OC)C7)C[C@@H](O)[C@H](C)/C=C(\C)[C@@H](O)[C@H]6OC)cn5)CC3)c(C(F)(F)F)c2)c(=O)n4C)cn1` [Example 14]: the IC50 was under 1 nM in test [1], 3.16 to 31.6 nM in test [2] and 31.6 to 1000 nM in test [3].

For `CO[C@H]1C[C@@H]2CC[C@@H](C)[C@@](O)(O2)C(=O)C(=O)N2CCCC[C@H]2C(=O)O[C@H]([C@H](C)C[C@@H]2CC[C@@H](O)[C@H](OC)C2)C[C@@H](O)[C@H](C)/C=C(\C)[C@@H](O)[C@@H](OC)C(=NOCC(=O)N2CCc3nc(N4CCN(c5ncc(C(=O)NCCOCCOCCOCCC(=O)NCCCCn6nc(-c7ccc8oc(N)nc8c7)c7c(N)ncnc76)cn5)CC4)ncc3C2)[C@H](C)C[C@H](C)/C=C/C=C/C=C/1C` [Example 15], the values for the IC50 in test [1], in test [2] and in test [3] were 1 to 10 nM, 3.16 to 31.6 nM and 31.6 to 1000 nM, respectively.

For `CO[C@H]1C[C@@H]2CC[C@@H](C)[C@@](O)(O2)C(=O)C(=O)N2CCCC[C@H]2C(=O)O[C@H]([C@H](C)C[C@@H]2CC[C@@H](O)[C@H](OC)C2)C[C@@H](O)[C@H](C)/C=C(\C)[C@@H](O)[C@@H](OC)C(=NOCC(=O)N2CCc3nc(N4CCN(c5ncc(C(=O)NCCOCCOCCC(=O)NCCCCn6nc(-c7ccc8oc(N)nc8c7)c7c(N)ncnc76)cn5)CC4)ncc3C2)[C@H](C)C[C@H](C)/C=C/C=C/C=C/1C` [Example 16], the IC50 in test [1] is 1 to 10 nM; in test [2], 3.16 to 31.6 nM; in test [3], over 1000 nM.

Turning to `CO[C@H]1C[C@@H]2CC[C@@H](C)[C@@](O)(O2)C(=O)C(=O)N2CCCC[C@H]2C(=O)O[C@H]([C@H](C)C[C@@H]2CC[C@@H](O)[C@H](OC)C2)C[C@@H](O)[C@H](C)/C=C(\C)[C@@H](O)[C@@H](OC)C(=NOCC(=O)N2CCc3nc(N4CCN(c5ncc(C(=O)NCCOCCC(=O)NCCCCn6nc(-c7ccc8oc(N)nc8c7)c7c(N)ncnc76)cn5)CC4)ncc3C2)[C@H](C)C[C@H](C)/C=C/C=C/C=C/1C` [Example 17], the figures for the IC50 in test [1], in test [2] and in test [3] were 1 to 10 nM, 3.16 to 31.6 nM and over 1000 nM, respectively.
